Patent EP0319030A1, “Aminopropanol derivatives of 1,4:3,6-dianhydro-hexitol nitrates, processes for their preparation and their use as medicaments” (Heinrich Mack Nachf., priority 1987, dated 1989)
Marks after values point to notes of the source that are not given here.

Legend:
Type in all cases: in vivo
Mice = assay: Peroral tolerance in mice; details: mouse, in vivo
Text: Set forth below is data obtained on the compounds of Examples 17, 19 and 20 that illustrates the pharmacological action of the compounds of the present invention.

anesthetized rat = assay: Lypressin-induced T-wave increase in the ECG (lypressin coronary spasm), method of M. Leitold et al.
Text: (§1) In particular, they have a pronounced cardiovascular action. On isolated strips of veins from dogs, they act against the K⁺-induced contraction in a lower concentration than on aorta strips. On isolated hearts from guinea pigs, they increase coronary flow as a function of the dose. On anesthetized rats, they prevent lypressin coronary spasm as a function of the dose and significiantly increase the survival rate of rats following acute cardiac infarction. On normotensive conscious dogs, they lower the systolic blood pressure for a period of 6-8 hours after oral administration. On artifically respirated anesthetized, thoraxotomized dogs, they reduce the mean arterial pressure, the left ventricular systolic pressure, the left ventricular end diastolic pressure and the pressure in the Arteria pulmonalis and reduce the peripheral vascular resistance. In contrast to the known organic nitrate esters, they also lead to a long-lasting reduction in the systolic blood pressure of spontaneously hypertensive rats. Such an action profile is not known for any of the substances of similar structure which have already been described.

rats = assay: Survival rate after acute coronary ligature, method of I. Lepran et al.; details: 100.0 mg/kg orally 5 minutes before ligature
Text: as §1

anesthetized dogs = assay: Cardiovascular actions following intra-venous administration, opened thorax and artificial respiration; details: opened thorax, artificial respiration
Text: as §1

## COc1ccccc1N1CCN(CC(O)CO[C@H]2CO[C@H]3[C@@H]2OC[C@@H]3O[N+](=O)[O-])CC1 (some centres unmarked) [Example 20, 5-O-<3-[4-(2-Methoxyphenyl)-piprazinyl]-2-hydroxypropyl>-isoidide-2-nitrate]
Mice
  tolerance (clinical symptoms, fatal consequences): without clinical symptoms and without fatal consequences
Anesthetized rat; Rattus norvegicus, po, 0.5 h, perorally 30 minutes before the lypressin injection, dose column in mg/kg
  ED50: 73.8 mg/kg
Anesthetized rat; perorally at various times before the lypressin injection
  Duration of action at the ED50 dose: 4 h
rats; control 21/80
  Number of rats surviving after an acute coronary ligature, 24 hours: 14/20*
  Number of rats surviving after an acute coronary ligature, 7 days: 14/20*
rats; control 23/80
  Number of rats surviving after an acute coronary ligature, 60 minutes: 14/20*
Anesthetized dogs; 30 µg/kg intra-venous
  CO, Action of substance: 0.81 ± 0.3 l/M
  CO, Change: 0.38 ± 0.1 l/M
  CO, Duration of action: 12 ± 6 min
  HR (heart rate), Action of substance: 192 ± 10 Bts/M
  HR (heart rate), Change: 2 ± 2 Bts/M
  HR (heart rate), Duration of action: 11 ± 4 min
  LVEDP (left ventricular enddiastolic pressure), Action of substance: 7.5 ± 1.2 mmHg
  LVEDP (left ventricular enddiastolic pressure), Change: 0.1 ± 0.2 mmHg
  LVEDP (left ventricular enddiastolic pressure), Duration of action: 9 ± 7 min
  LVSP (left ventricular systolic blood pressure), Action of substance: 116 ± 10 mmHg
  LVSP (left ventricular systolic blood pressure), Change: 22 ± 4 mmHg
  LVSP (left ventricular systolic blood pressure), Duration of action: 8 ± 3 min
  MAP (mean arterial blood pressure), Action of substance: 66 ± 3 mmHg
  MAP (mean arterial blood pressure), Change: 25 ± 5 mmHg
  MAP (mean arterial blood pressure), Duration of action: 15 ± 2 min
  PAP, Action of substance: 16.0 ± 1 mmHg
  PAP, Change: 0.4 ± 0.2 mmHg
  PAP, Duration of action: 11 ± 6 min
  SV, Action of substance: 7.5 ± 2 mL/s
  SV, Change: 2.3 ± 1 mL/s
  SV, Duration of action: 12 ± 6 min
  TPR (total peripheral vascular resistance), Action of substance: 63 ± 13 mmHg/ml
  TPR (total peripheral vascular resistance), Change: 2 ± 13 mmHg/ml
  TPR (total peripheral vascular resistance), Duration of action: 4 ± 2 min
  dp/dtmax (maximum rate of increase in the left ventricular pressure), Action of substance: 2321 ± 363 mmHg/s
  dp/dtmax (maximum rate of increase in the left ventricular pressure), Change: 758 ± 269 mmHg/s
  dp/dtmax (maximum rate of increase in the left ventricular pressure), Duration of action: 15 ± 4 min
Anesthetized dogs; 300 µg/kg intra-venous
  CO, Action of substance: 1.32 ± 0.7 l/M
  CO, Change: 0.21 ± 0.6 l/M
  CO, Duration of action: 35 ± 23 min
  HR (heart rate), Action of substance: 197 ± 12 Bts/M
  LVEDP (left ventricular enddiastolic pressure), Action of substance: 6.8 ± 1 mmHg
  LVEDP (left ventricular enddiastolic pressure), Change: 1.1 ± 1 mmHg
  LVEDP (left ventricular enddiastolic pressure), Duration of action: 18 ± 13 min
  LVSP (left ventricular systolic blood pressure), Action of substance: 111 ± 11 mmHg
  LVSP (left ventricular systolic blood pressure), Change: 34 ± 5 mmHg
  LVSP (left ventricular systolic blood pressure), Duration of action: 34 ± 12 min
  MAP (mean arterial blood pressure), Action of substance: 58 ± 2 mmHg
  MAP (mean arterial blood pressure), Change: 39 ± 3 mmHg
  MAP (mean arterial blood pressure), Duration of action: 35 ± 15 min
  PAP, Action of substance: 15.7 ± 1 mmHg
